Test results published in PubChem BioAssay (NCI).
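Growth conditions: 96-well plates. Treatment: test compound, 48 hours, 5 concentrations. Analysis: linear interpolation between bracketing concentrations; unreached endpoints set to highest concentration. TGI: concentration producing complete growth inhibition.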

Key:
Experiment in all cases: NCI tumour cell line growth inhibition, 48 h
[1] = tested on: A498 renal
[2] = tested on: OVCAR-4 ovarian
[3] = tested on: MDA-MB-231 breast
[4] = tested on: NCI-H23 lung
[5] = tested on: CCRF-CEM leukemia
[6] = tested on: RPMI-8226 leukemia
[7] = tested on: SN12C renal
[8] = tested on: MCF7 breast
[9] = tested on: EKVX NSCLC
[10] = tested on: CAKI-1 renal

| Structure (SMILES) | TGI [1] | TGI [2] | TGI [3] | TGI [4] | TGI [5] | TGI [6] | TGI [7] | TGI [8] | TGI [9] | TGI [10] |
| --- | --- | --- | --- | --- | --- | --- | --- | --- | --- | --- |
| CNCC(SC)c1ccc(O)c(O)c1 (stereo not given) | > 100 µM | 32.5 µM | > 100 µM | > 100 µM | 7.33 µM | 58.6 µM | 45.8 µM | 87.4 µM | 37.1 µM | 38 µM |
| C[C@H](CCc1nc(C#N)c(N)o1)[C@H]1CC[C@H]2[C@@H]3CCC4C[C@@H](O)CC[C@]4(C)[C@H]3C[C@@H](O)[C@]12C (stereo not given in full) | 36.6 µM | 4.92 µM | 32.7 µM | 32.7 µM | 0.445 µM | 6.05 µM | 24.6 µM | 35.7 µM | 27.8 µM | 28.4 µM |
| COc1ccc(N=C(C)C(C)=Nc2ccc(OC)cc2)cc1 | > 100 µM | > 100 µM | > 100 µM | > 100 µM | > 100 µM | > 100 µM | > 100 µM | > 100 µM | > 100 µM | > 100 µM |
| CC(Cl)(CCC(Cl)C(C)(C)Cl)C(=O)CBr (stereo not given) | 31.1 µM | 7.46 µM | 23.9 µM | 39.5 µM | > 21.5 µM | 7.99 µM | 28.7 µM | 28.5 µM | 30.9 µM | 27.8 µM |
| COC(=O)[C@@H]1C=CCN1S(=O)(=O)c1ccc(C)cc1 | > 100 µM | > 100 µM | > 100 µM | > 100 µM | 72.1 µM | > 100 µM | > 100 µM | > 100 µM | > 100 µM | 57.8 µM |
| COc1ccc(C2C3=C(COC3=O)Oc3cc4c(cc32)OCO4)cc1OC (stereo not given) | 8.18 µM | > 100 µM | > 100 µM | > 100 µM | > 32.4 µM | > 23.5 µM | > 100 µM | > 100 µM | > 38 µM | > 100 µM |
| COC(=O)CCCc1nc2ccccc2nc1N=Nc1ccccc1 | > 100 µM | > 100 µM | > 100 µM | > 100 µM | 72.7 µM | 98.8 µM | > 100 µM | > 100 µM | > 100 µM | > 100 µM |
| CN1CCC(O)(OC(=O)C(c2ccccc2)C2(O)CCCC2)CC1 (stereo not given) | > 100 µM | > 100 µM | > 100 µM | > 100 µM | > 100 µM | > 100 µM | > 100 µM | > 100 µM | > 100 µM | > 100 µM |
| Cc1cc(NS(=O)(=O)c2ccc(Nc3c4ccccc4nc4c(C(=O)NC(CO)(CO)CO)cccc34)cc2)no1 | > 100 µM | > 100 µM | > 100 µM | > 100 µM | 66.3 µM | 63.9 µM | 78.6 µM | > 100 µM | > 100 µM | > 100 µM |
| Cc1oc(N)c(S(=O)(=O)/C(C#N)=C/c2ccccc2[N+](=O)[O-])c1C | > 100 µM | > 100 µM | 82.6 µM | 79.4 µM | 68.5 µM | 75.2 µM | 47.8 µM | > 100 µM | > 100 µM | 53.9 µM |
| C[C@@H]1C[C@@H]2OC(=O)[C@]3(C)[C@H]2[C@@H](OC3(C)O)[C@]2(C)C(=O)C=C[C@@H]12 (stereo not given in full) | 70.6 µM | 35.9 µM | 64.5 µM | 70 µM | 31.8 µM | 17.7 µM | 38.1 µM | 32.7 µM | 49.2 µM | 62.1 µM |
| COC1(C)CCC(OS(C)(=O)=O)CO1 (stereo not given) | > 100 µM | > 100 µM | > 100 µM | > 100 µM | > 100 µM | > 100 µM | > 100 µM | > 100 µM | > 100 µM | > 100 µM |
